Measurements published in ChEMBL document CHEMBL1201862, “PubChem BioAssay data set” (2004).
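A five-concentration, 48-hour dose response in 96-well plates underlies each endpoint, interpolated linearly between surrounding concentrations. Here, GI50 denotes the concentration required for 50% inhibition of growth.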 The source made the active and inactive calls. No stated cut-off is given here; in the data, active = GI50 up to about 1.1 µM and inactive = higher.

How the values were obtained:
Test in all cases: NCI tumour cell line growth inhibition, 48 h
A549 = test system: A549
COLO 205 = test system: COLO 205
HL-60 = test system: HL-60
HT-29 = test system: HT-29
IGROV-1 = test system: IGROV-1
K562 = test system: K562
M14 = test system: M14
MCF7 = test system: MCF7
MDA-MB-231 = test system: MDA-MB-231
MDA-MB-435 = test system: MDA-MB-435
NCI-H226 = test system: NCI-H226
PC-3 = test system: PC-3
SK-OV-3 = test system: SK-OV-3
SNB-19 = test system: SNB-19
SW-620 = test system: SW-620
U-251 = test system: U-251
UACC-62 = test system: UACC-62
HOP-92 = test system: HOP-92
OVCAR-4 = test system: OVCAR-4
SR = test system: SR

| SMILES | GI50 (A549) | GI50 (COLO 205) | GI50 (HL-60) | GI50 (HT-29) | GI50 (IGROV-1) | GI50 (K562) | GI50 (M14) | GI50 (MCF7) | GI50 (MDA-MB-231) | GI50 (MDA-MB-435) | GI50 (NCI-H226) | GI50 (PC-3) | GI50 (SK-OV-3) | GI50 (SNB-19) | GI50 (SW-620) | GI50 (U-251) | GI50 (UACC-62) | GI50 (HOP-92) | GI50 (OVCAR-4) | GI50 (SR) |
| --- | --- | --- | --- | --- | --- | --- | --- | --- | --- | --- | --- | --- | --- | --- | --- | --- | --- | --- | --- | --- |
| COc1ccc(/C=C/C(=O)CC(=O)/C=C/c2ccc(OC)cc2)cc1 | 80.4 µM (inactive) | 69.5 µM (inactive) | 25.6 µM (inactive) | 23.1 µM (inactive) | > 100 µM (inactive) | 32.7 µM (inactive) | 77.8 µM (inactive) | 64.9 µM (inactive) | 51.4 µM (inactive) | 38.6 µM (inactive) | > 100 µM (inactive) | 19.9 µM (inactive) | > 100 µM (inactive) | 89.9 µM (inactive) | 52.5 µM (inactive) | 41.3 µM (inactive) | 54.2 µM (inactive) |  |  |  |
| O=C1C=CC2CCC1C2 (stereo unspecified) | 40.6 µM (inactive) | 33.7 µM (inactive) | 19.2 µM (inactive) | 32.3 µM (inactive) | 53.3 µM (inactive) | 27.4 µM (inactive) | 27.4 µM (inactive) | 31.1 µM (inactive) | 28.6 µM (inactive) | 17.2 µM (inactive) | 39.4 µM (inactive) | 45 µM (inactive) | 24.4 µM (inactive) | 28.4 µM (inactive) | 32.1 µM (inactive) | 28.8 µM (inactive) | 19.2 µM (inactive) |  |  |  |
| Cc1ccc(S(=O)(=O)n2c3ccc(Br)cc3c3nc4ccccc4nc32)cc1 | > 100 µM (inactive) | > 100 µM (inactive) |  | > 100 µM (inactive) | 0.689 µM (active) | > 100 µM (inactive) | > 100 µM (inactive) |  | > 100 µM (inactive) | > 100 µM (inactive) | 0.183 µM (active) | > 100 µM (inactive) |  | > 100 µM (inactive) | > 100 µM (inactive) | > 100 µM (inactive) | > 100 µM (inactive) | > 100 µM (inactive) | 72.8 µM (inactive) |  |
| NCCCNCCSSCCCCS(=O)O | 59.8 µM (inactive) | 16.4 µM (inactive) | 10.4 µM (inactive) | 39.8 µM (inactive) | > 100 µM (inactive) | 24.3 µM (inactive) | 18.5 µM (inactive) |  |  |  | 57.8 µM (inactive) |  | > 100 µM (inactive) | > 100 µM (inactive) | 30.4 µM (inactive) | > 100 µM (inactive) | 15.7 µM (inactive) | > 100 µM (inactive) | 14.6 µM (inactive) | 3.37 µM (inactive) |
| O=[N+]([O-])c1ccc(/N=N\c2c(O)ccc3ccccc23)c([N+](=O)[O-])c1 | > 100 µM (inactive) | > 100 µM (inactive) |  | > 100 µM (inactive) | > 32.7 µM (inactive) | 19.8 µM (inactive) | > 100 µM (inactive) | > 100 µM (inactive) | > 48.6 µM (inactive) | > 100 µM (inactive) | > 100 µM (inactive) | > 100 µM (inactive) | > 100 µM (inactive) | > 100 µM (inactive) | > 100 µM (inactive) | > 100 µM (inactive) | > 100 µM (inactive) | > 100 µM (inactive) | > 100 µM (inactive) |  |
| CN(C)C(=S)SCC(=O)Nc1ccccc1 | > 100 µM (inactive) | > 100 µM (inactive) | > 100 µM (inactive) | > 100 µM (inactive) | > 100 µM (inactive) | > 100 µM (inactive) | > 100 µM (inactive) | > 100 µM (inactive) | > 100 µM (inactive) | > 100 µM (inactive) | > 100 µM (inactive) |  | > 100 µM (inactive) |  | > 100 µM (inactive) | > 100 µM (inactive) | > 100 µM (inactive) | > 100 µM (inactive) | > 100 µM (inactive) | > 100 µM (inactive) |
| OC(c1ccccc1)c1c(-c2ccccc2)[nH]c(-c2ccccc2)c1C(O)c1ccccc1 (stereo unspecified) | 3.73 µM (inactive) | 1.74 µM (inactive) | 2.28 µM (inactive) | 3.99 µM (inactive) | 3.18 µM (inactive) | 2.03 µM (inactive) | 3.66 µM (inactive) | 3.78 µM (inactive) |  | 3.18 µM (inactive) | 2.4 µM (inactive) | 2.54 µM (inactive) | 4.25 µM (inactive) | 3.56 µM (inactive) | 4.9 µM (inactive) | 3.78 µM (inactive) | 2.84 µM (inactive) | 2.19 µM (inactive) | < 0.01 µM (active) | 4.1 µM (inactive) |
| Cc1cccc(Nc2cn(CCOc3ccccc3)c(=O)[nH]c2=O)c1 | 22.7 µM (inactive) | 18.8 µM (inactive) |  |  | 16.7 µM (inactive) | 58.6 µM (inactive) | 47.2 µM (inactive) | 35.9 µM (inactive) |  | 29.5 µM (inactive) |  | 23.4 µM (inactive) |  | 97.1 µM (inactive) | > 100 µM (inactive) | 33.7 µM (inactive) | 46.6 µM (inactive) | 35.6 µM (inactive) | 69.5 µM (inactive) | > 100 µM (inactive) |
